Data reported in patent US12702715B2, “Targeted RNA degradation allows precision repurposing of protein-targeted small molecule medicines to RNA” (University of Florida Research Foundation, Incorporated, priority 2020, dated 2026).
Entries after “also recorded” stand apart in the source; their conditions may differ.

Experiments:
Format in all cases: cell-based, human
FLT3 = FLT3 degradation Western blot in MDA-MB-231 cells; conditions: MDA-MB-231
Procedure: In each case, the secondary antibody was diluted two times more than the primary antibody.

[1] = test system: RTK / phosphorylation of ERK (pERK); assay: Western blot of ERK phosphorylation (functional RTK inhibition) in MDA-MB-231 cells
Procedure: Western Blotting. MDA-MB-231 cells were plated in 6-well plates. […] The cells were harvested by trypsinization, and total protein was extracted with MPER (Mammalian Protein Extraction Reagent, Thermo Scientific) as previously described^6. Protein concentrations were determined by using a Pierce Micro BCA Protein Assay kit (Fisher Scientific). […] ImageJ software was used for quantification of the protein bands. […] In each case, the secondary antibody was diluted two times more than the primary antibody.

miR-21 = assay: RT-qPCR of mature miR-21 levels in MDA-MB-231 cells
Procedure: Cell Culture. Cells were cultured at 37° C. and 5% CO2. […] For compound treatment, compound stocks either in DMSO or water were diluted in growth medium and added to cells for the indicated time. […] After transfection, the medium was replaced with growth medium containing the compound of interest, prepared as described above. The RNase L-targeting siRNA or a control siRNA was transfected with Lipofectamine RNAiMAX reagent (Invitrogen) per the manufacturer's protocol.
(§1) RNA Isolation and Quantitative Real-Time PCR (RT-qPCR). After treatment, total RNA was extracted and purified by using the Zymo Quick-RNA mini prep kit per the manufacturer's protocol. Reverse Transcription (RT) for mature miRNAs as well as pri- and pre-miR-21 was completed on 200 ng of RNA by using a miScript 11 RT kit (QIAGEN) according to manufacturer's protocol. RT of mRNAs was performed by using QScript kit (Quanta Bio). An Applied Biosystems QS5 384-well PCR system was used to complete qPCR experiments using Power Sybr Green Mater Mix (Life Technologies) as described previously^6.

pre-miR-21 [2] = assay: Cellular Chem-CLIP and C-Chem-CLIP to study occupancy of pre-miR-21; conditions: increasing concentrations, 4 constant
Procedure: Cellular Chem-CLIP and C-Chem-CLIP to Study Occupancy of pre-miR-2L MDA-MB-231 cells in 100 mm dishes (~90% confluency) were treated with 4 or 5 for 6 h at 37° C. Then the cells were washed with 1×DPBS and cross-linked under 365 nm light for 10 min in ice cold 1×DPBS. The cells were harvested by scraping and pelleted by centrifugation. Total RNA was extracted by using the miRNeasy mini kit (Qiagen) per the manufacturer's protocol. Approximately 50 μg of total RNA was clicked to disulfide biotin azide as described in the “In Vitro Chem-CLIP and Competitive Chem-CLIP (C-Chem-CLIP)” section. Streptavidin beads (10 μL) were added, and the samples were incubated, with shaking, for 2 h at 37° C. The beads were then washed with 1× Wash Buffer (10 mM Tris-HCl, pH 7.0, 4 M NaCl, 1 mM EDTA) three times and then once with nanopure water. Bound RNAs were eluted from the beads by incubating with 200 μL of 1:1 TCEP (200 mM) pre-reduced with 600 mM of K2CO3 for 30 min at 37° C. The reaction was quenched by treatment with an equal volume of 400 mM of iodoacetamide for 30 min at room temperature. The supernatant was collected, and the beads were washed once with nanopure water: the water was added to the eluant. The combined eluant was cleaned up using RNAClean XP beads according to the manufacturer's protocol. The obtained RNA was then subjected to RT-qPCR. Enrichment of pre-miR-21 was calculated as previously described^6. Cellular C-Chem-CLIP was completed by pre-treating with 1 (1 or 5 μM) or 3 (1 or 5 μM) for 6 h, followed by dosing with 4 (5 μM) for 6 h. Sample preparation and data analysis were completed as described above for cellular Chem-CLIP studies.

pre-miR-21 [3] = assay: RT-qPCR of pre-miR-21 levels in MDA-MB-231 cells
Procedure: Cell Culture. Cells were cultured at 37° C. and 5% CO2. MDA-MB-231 cells (HTB-26, ATCC) were cultured in RMPI 1640 medium with L-glutamine & 25 mM HEPES supplemented with 1× Antibiotic/Antimycotic solution (Corning) and 10% FBS. MCF-10A cells (CRL-10317, ATCC) were cultured in 1×DMEM/F12 50/50 with L-glutamine & 15 mM HEPES (Corning) supplemented with 20% FBS, 1× Antibiotic/Antimycotic solution, 20 ng/mL human epidermal growth factor (Pepro Tech, Inc.), 10 μg/mL insulin (Sigma-Aldrich), and […] hydrocortisone (Pfaltz & Bauer). For compound treatment, compound stocks either in DMSO or water were diluted in growth medium and added to cells for the indicated time. Plasmid DNA to overexpress pre-miR-21 in pcDNA 3.1 (Addgene 21114) or a plasmid DNA encoding the pre-miR-21 mutant (custom purchased from GenScript USA, Inc.) was transfected with jetPRIME per the manufacturer's protocol. After transfection, the medium was replaced with growth medium containing the compound of interest, prepared as described above. The RNase L-targeting siRNA or a control siRNA was transfected with Lipofectamine RNAiMAX reagent (Invitrogen) per the manufacturer's protocol.
as §1

PTEN = PTEN luciferase assay; conditions: MDA-MB-231
Procedure: PTEN Luciferase Assay. To study de-repression of PTEN, a luciferase-based cellular assay was performed as previously described^6. Briefly, MDA-MB-231 cells (~60% confluency) in 48-well plates were co-transfected with plasmids encoding Renilla luciferase (for normalization) and firefly luciferase fused to the 3′ UTR of PTEN by using Lipofectamine 2000 according to the manufacturer's protocol. After 5 h, the cells were treated with the compounds diluted in growth medium. Luciferase assay were then completed as previously described^4, 9.

IC50 ([1]; Homo sapiens, MDA-MB-231): 20 nM
PTEN expression (luciferase-based assay) (PTEN): derepressed
Structure (SMILES): Cc1ncsc1-c1ccc(CNC(=O)[C@@H]2C[C@@H](O)CN2C(=O)[C@@H](NC(=O)NCCOCCOCCOCCOCCC(=O)NCCN2CCN(c3ccc4[nH]c(-c5c(N)c6c(F)cccc6[nH]c5=O)nc4c3)CC2)C(C)(C)C)cc1 [Compound 3, Protac-Dovitinib]
FLT3 levels / degradation (FLT3): low nanomolar activity; also recorded: induced degradation of FLT3 in a dose-dependent manner
fold increase of RTK inhibition relative to 1 [1]: 5 fold
inhibition of ERK phosphorylation compared to 1 ([1]; Western blot): more potent than 1
fold increase in potency / miR-21 inhibitory activity compared with 1 (miR-21; MDA-MB-231): similar
mature miR-21 levels (miR-21; MDA-MB-231, RT-qPCR): reduced
competition of pull-down of pre-miR-21 with 4 (pre-miR-21 [2]): similarly diminished
pre-miR-21 levels (pre-miR-21 [3]; MDA-MB-231, RT-qPCR): increased; also recorded: boosted
competition of cleavage of pre-miR-21 by RIBOTAC 2 (pre-miR-21 [3]; constant concentration of 2 (1 μM), increasing competitor): abated the cleavage
